Measured values taken from patent US9458086B1, “Compositions and methods for adipocyte modulation” (University of South Florida (A Florida Non-Profit …, priority 2013, dated 2016).

Key:
[1] = tested on: PKCδII; test: PCR of PKCδII in adipose tissue of mice fed resveratrol; format: in vivo, mouse; conditions: 400 mg resveratrol per kg body weight in diet, once daily
Experimental: (§1) Total RNA was obtained from mouse adipose tissues from Dr. You (University of South Florida). 8-week old male C57BL/6J (Jackson labs) were either fed a chow diet (control) or diet with added 400 mg resveratrol per kg body weight, once daily 23); n=5. Total RNA was extracted from adipose tissues from these mice. All protocols were reviewed and approved by the Institutional Animal Care and Use Committee at University of South Florida, Division of Comparative Medicine.
(§2) Total RNA was isolated from 3T3L1 cells with RNA-Bee (Tel Test Center) as recommended by the manufacturer. RNA was also obtained from adipose tissues of mice fed with or without resveratrol. 2 μg RNA was used to synthesize first-strand cDNA with an Oligo(dT) primer and Omniscript R kit (Qiagen). The following primers were used in PCR: PKCδ forward primer 5′ […] 3′ (SEQ ID NO:1); reverse primer 5′ […] 3′ (SEQ ID NO:2). These primers amplified PKCδI and PKCδII simultaneously. PKCδII-specific antisense primer (5′ […]3′) (SEQ ID NO:3). β-actin forward primer 5′ […] 3′ (SEQ ID NO:4); reverse primer 5′ […] 3′ (SEQ ID NO:5). Following PCR, 5% of products were resolved on 6% PAGE gels and detected by silver staining. The PCR reaction was optimized for linear range amplification to allow for quantification of products. Densitometric analyses of the bands were done using the Un-Scan IT™ Analysis Software (Silk Scientific).

[2] = tested on: SIRT1; conditions: mice, 400 mg resveratrol; earlier studies (23); cited from earlier work
[3] = tested on: 3T3L1 preadipocytes; test: Resveratrol dose finding in differentiating 3T3L1 preadipocytes; format: cell-based, mouse; conditions: doses 10 to 100 μM tested, data not shown
Experimental: (§3) Mouse 3T3-L1 preadipocytes were purchased from ZenBio™ (Research Triangle Park, N.C., USA) and passaged as preconfluent cultures in DMEM high glucose (Invitrogen, Carlsbad, Calif.) with 10% newborn calf serum (Sigma-Aldrich, St. Louis, Mo.) at 37° C. and 10% CO2. Once confluent, cells were differentiated (day 0) in DMEM high glucose with 10% fetal bovine serum (Atlas Biological, Fort Collins, Colo.), 10 μg/mL bovine insulin (Sigma), […] dexamethasone (Sigma), and 0.5 mM isobutyl-1-methylxanthine (Sigma). On day 2, media was replaced with DMEM high glucose, 10% FBS, and bovine insulin. Day 4 and afterwards, cells were cultured in DMEM high glucose plus 10% FBS.
Several studies have shown its role in inhibiting adipose cell proliferation, lipid accumulation and stimulation of apoptosis and lipolysis in mature adipocytes. Further, resveratrol is shown to modulate alternative splicing of genes (29). However, its mechanisms of action and target proteins in apoptotic pathways during adipogenesis was not determined. […] Resveratrol treatment administered on day 5 (mature adipcoyte) inhibited PKCδII expression levels by 65% on day 6 and by more than 90% on day 8 (FIG. 7I a, b, c). Simultaneously, up to a 50% increase in PKCδI levels was observed on days 6 and 8.

[4] = tested on: PPARγ; test: Western blot of PPARγ (adipogenesis marker) in differentiating 3T3L1 cells; format: cell-based, mouse
Experimental: as §3
(§4) Protein lysates were obtained from 3T3L1 cells using lysis buffer containing proteases. Protein lysates (40 μg) were separated by SDS-PAGE with 10% gels. Proteins were electrophoretically transferred to nitrocellulose membranes, blocked with Tris-buffered saline containing 0.1% Tween 20 and 5% nonfat dried milk, washed, and incubated with a polyclonal anti-PARP (Upstate Biotechnology), anti-XIAP (AnaSpec), anti-Bcl2, anti-caspase 9 (Calbiochem), anti-Bcl-x (Santa Cruz Biotechnology), and anti-PKCδ (Cell Signaling) or antibody against the hinge-region of PKCδII (Patel lab (19)). This antibody is specific for PKCδII, as it recognizes the extended hinge region, which is absent in PKCδI (24). Other antibodies used are as follows: PPARγ, Akt, pAkt 473, TNFα, Adiponectin, p-BAD (S316), p-PTEN (Cell Signaling, Boston, Mass.), β-actin A5441 (Sigma). After incubation with anti-rabbit IgG-HRP, enhanced chemiluminescence (Pierce) was used for detection. FluorChem M™ (Protein Simple) imaging system was used to capture digital chemiluminescence images and process western blots. Data was analyzed using AlphaView® software.

[5] = tested on: PKCδI; test: PCR of PKCδI in adipose tissue of mice fed resveratrol; format: in vivo, mouse; conditions: 400 mg resveratrol per kg body weight in diet, once daily
Experimental: as §1, §2

[6] = tested on: PKCδII; test: Western blot of PKCδII expression in differentiating 3T3L1 cells; format: cell-based, mouse; conditions: for inhibition of PKCδII expression levels: 25 μM administered on day 5 (mature adipocyte)
Experimental: as §3, §4

[7] = tested on: PKCδI; test: Western blot of PKCδI expression in differentiating 3T3L1 cells; format: cell-based, mouse
Experimental: as §3, §4

[8] = tested on: TNFα; conditions: mice, 400 mg resveratrol; earlier studies (23); cited from earlier work
[9] = tested on: 3T3L1 adipocytes; test: Oil Red O staining for lipid accumulation; format: cell-based, mouse; conditions: 25 μM on day 4, Oil Red O staining on day 8
Experimental: as §3
3T3L1 preadipocytes were washed with PBS and fixed with 10% formalin for 30 minutes. The cells were then rinsed and incubated with 60% isopropanol for 5 minutes. Oil Red O stain (0.15%, Sigma) was added and incubated for 10 minutes. Images were captured with Nixon confocal microscope.

[10] = tested on: 3T3L1 adipocytes; test: Apoptosis assay, Annexin V-PI staining by flow cytometry; format: cell-based, mouse
Experimental: as §3
3T3L1 preadipocytes were cultured on 60 mm dishes as described above. For apoptosis assays, cells were serum-starved for 48 hours. Media were collected and cells were washed one time with HBSS and then trypsinized for 5.0 minutes. Five ml complete media was added to neutralize the trypsin. Media and washes were pooled and centrifuged at 1200 RPMS for five minutes. […] 400 μl binding buffer was added and cells were analyzed by flow cytometry within one hour Annexin V-FITC and PI fluorescence, which stains apoptotic cells, were measured using an Accuri C6 flow cytometer.

[11] = tested on: Bcl2; test: Western blot of Bcl2 in 3T3L1 cells; format: cell-based, mouse; conditions: SEAM treatment (200 nM)
Experimental: as §3
(§5) Protein lysates were obtained from 3T3L1 cells using lysis buffer containing proteases. Protein lysates (40 μg) were separated by SDS-PAGE with 10% gels. Proteins were electrophoretically transferred to nitrocellulose membranes, blocked with Tris-buffered saline containing 0.1% Tween 20 and 5% nonfat dried milk, washed, and incubated with a polyclonal anti-PARP (Upstate Biotechnology), anti-XIAP (AnaSpec), anti-Bcl2, anti-caspase 9 (Calbiochem), anti-Bcl-x (Santa Cruz Biotechnology), and anti-PKCδ (Cell Signaling) or antibody against the hinge-region of PKCδII (Patel lab (19)). […] Data was analyzed using AlphaView® software.

[12] = tested on: adiponectin; test: Western blot of adiponectin in 3T3L1 cells; format: cell-based, mouse; conditions: SEAM treatment, days 4 and 8
Experimental: as §3, §5

[13] = tested on: Bcl-xL; test: Western blot of Bcl-xL in 3T3L1 cells; format: cell-based, mouse; conditions: SEAM treatment (200 nM)
Experimental: as §3, §5

[14] = tested on: PKCδ exon 9 5′ splice site II; test: pSPL3-PKCδ splicing minigene RT-PCR; format: cell-based, mouse; conditions: 200 nM SEAM, 24 hours after minigene transfection, harvested on day 2
Text: The pSPL3 vector was modified to remove cryptic 5′ splice sites as described in a previous publication (25). The pSPL3 vector was digested with BamHI (in the MCS) and NheI. Primers to amplify genomic PKCδ from 3T3L1 cells flanked mouse PKCδ exon 9 and were designed to include the BclI site in the forward primer (in bold type) and BcuI site in the reverse primers (in bold type). The forward primer was designed to amplify 137 bp of 3′ intronic sequence such that the product contained the branch point and 3′ splice site and the reverse primer included 284 bp 5′ intronic sequence and included the 5′ splice site II of exon 9. The primers were: forward primer 5′ […] 3′ (SEQ ID NO:6); reverse primer 5′ […] 3′ (SEQ ID NO:7). The product was verified by sequencing and ligated into the digested pSPL3 vector. The overhangs of the selected restriction enzymes can hybridize and this enabled cloning of the PCR product in the proper orientation. The resulting pSPL3-PKCδ minigene was verified by restriction digestion and sequencing.
Splicing minigenes are advantageous to study alternative splicing events without influence from endogenous factors. […] Utilization of 5′ splice site I on exon 9 gave rise to PKCδI while utilization of downstream 5′ splice site II gave rise to PKCδII. After 24 hours, the cells were treated with 200 nM SEAM. […]

[15] = tested on: PKCδII; test: RT-PCR of PKCδII splicing/mRNA in differentiating 3T3L1 preadipocytes; format: cell-based, mouse
Experimental: as §3
Total RNA was isolated from 3T3L1 cells with RNA-Bee (Tel Test Center) as recommended by the manufacturer. RNA was also obtained from adipose tissues of mice fed with or without resveratrol. 2 μg RNA was used to synthesize first-strand cDNA with an Oligo(dT) primer and Omniscript R kit (Qiagen). The following primers were used in PCR: PKCδ forward primer 5′ […] 3′ (SEQ ID NO:1); reverse primer 5′ […] 3′ (SEQ ID NO:2). These primers amplified PKCδI and PKCδII simultaneously. […] Following PCR, 5% of products were resolved on 6% PAGE gels and detected by silver staining. The PCR reaction was optimized for linear range amplification to allow for quantification of products. […]

[16] = tested on: cPKCs: α, βI, βII, γ; nPKCs: η, ε, θ; aPKCs: ζ, λ; test: Immunoblotting for other PKC family isoforms (specificity); format: cell-based, mouse; conditions: SEAM treatment (200 nM)
Experimental: as §3
Protein lysates were obtained from 3T3L1 cells using lysis buffer containing proteases. Protein lysates (40 μg) were separated by SDS-PAGE with 10% gels. […] Data was analyzed using AlphaView® software.
3-hydroxystilbene was modified by Mannich coupling to add bis-diethylaminomethyl group (described in Example 1). Several synthetic stilbenoids with structural modifications to the basic resveratrol structure were evaluated. […]

[17] = tested on: 3T3L1 cells; test: Cytotoxicity assay / cell viability; format: cell-based, mouse; conditions: 200 nM SEAM in 3T3L1 cells
Experimental: WST-1 (Roche Molecular Biochemicals, IN) was added to 3T3L1 cells (in triplicate) that are treated without or with SEAM to a final concentration of 10% (vol/vol). Cells were incubated for 2 hours at 37° C. The formazon dye produced by viable cells was quantified using a spectrophotometer set at a wavelength of 440 nm and absorbance recorded for each well (reference wavelength, 690 nm).
Immunoblotting for PPARγ and adiponectin was also performed to determine whether SEAM affected differentiation of 3T3L1 cells. […] Total apoptosis was measured by flow cytometry using Annexin V-PI staining (FIG. 8d). To determine whether SEAM was toxic to cells, cell viability was evaluated upon treatment of 200 nM SEAM in 3T3L1 cells. Cytotoxicity was measured using the […] assay. This assay measures the reducing potential of the cell using a colorimetric reaction. Viable cells reduce the […] to a colored formazan product.

## Oc1ccc(C=Cc2cc(O)cc(O)c2)cc1 [resveratrol, 3,5,4′-trihydroxystilbene]
[1]
  decrease in PKCδII expression in adipose tissue: 70%
[2]
  SIRT1 levels in adipose tissue: increased
[3]; 100 μM resveratrol
  effect on the cells: detrimental to the cells
[3]
  optimal dose: 25 µM
[4]; 25 μM resveratrol, day 8
  PPARγ2 levels: inhibition of PPARγ2 levels
  decline of PPARγ1 levels: 30%
[5]
  increase in PKCδI expression in adipose tissue: 25%
[6]; 25 μM administered on day 0 (preadipocyte)
  decrease in PKCδII expression: less than 10%
[6]; read on day 6
  inhibition of PKCδII expression levels: 65%
[6]; read on day 8
  inhibition of PKCδII expression levels: more than 90%
[7]; 25 μM resveratrol, days 6 and 8
  increase in PKCδI levels: ≤ 50%
[8]
  TNFα levels in adipose tissue: decreased
[9]
  decline in lipid accumulation compared to control: greater than 75%
[10]; 25 μM on day 2, collected on day 8
  adipocytes undergoing apoptosis: 70%

## CCN(CC)Cc1ccc(/C(C)=C(\C)c2ccc(CN(CC)CC)c(O)c2)cc1O [SEAM]
[11]
  decrease of Bcl2 levels: 40%
[12]
  decrease of adiponectin compared to control: 20%
[13]
  decrease of BclxL levels: 20%
[14]
  utilization of 5′ splice site II: inhibited
[15]; 100 nM, data not shown
  inhibition of PKCδII splicing: 60%
[15]; 200 nM
  decrease of PKCδII compared to control cells: 80%
[16]
  expression levels of other PKC isoforms: did not affect
[17]
  cell viability: viable
[4]; SEAM treatment, days 4 and 8
  decrease of PPARγ2 compared to control: 5%
[7]; 100 nM, data not shown
  PKCδI expression: not affected
[7]; SEAM treatment (200 nM)
  PKCδI levels: did not affect
[10]; 200 nM SEAM, Annexin V-PI staining
  apoptosis levels: increased compared to control
